Data from article PMC10961089, “Epidermal growth factor receptor inhibition potentiates chemotherapeutics‐mediated sensitization of metastatic breast cancer stem cells” (Cancer Reports, 2024).

What was measured:
Type in all cases: cell-based, human
[1] = tested on: Bax and Cytochrome‐C in MDA‐MB‐231 cells; experiment: Gene expression of apoptotic genes, semi-quantitative RT-PCR; conditions: MDA-MB-231, doxorubicin + compound 5 μM, 24 h
Description: Briefly, the cells were incubated at 37°C with serum starvation followed by culturing as described above. […] Briefly, the template RNA (1 μg) was utilized for cDNA synthesis using a First‐strand cDNA synthesis kit (Thermo Scientific, USA) according to the manufacturer's protocol. Thermal cycler (Mastercycler® nexus, Eppendorf) was used for the amplification of the expression of apoptotic genes—Bax, Bcl2, Cytochrome‐C, and target gene EGFR with the help of Dream Taq DNA Polymerase PCR Master Mix (Thermo Scientific, USA) along with human gene‐specific forward and reverse primer sequences of the apoptotic genes and EGFR (Table ST1). The expression of the target genes was normalized to the Eukaryotic 18S rRNA.

MDA‐MB‐231 cells = experiment: Apoptosis assay, Hoechst 33342 staining; conditions: MDA-MB-231, combinatorial treatment with doxorubicin, 48 h, vs other treatment groups
Description: MDA‐MB‐231 cells were seeded at a density of 3 × 10^4 cells/well and cultured on a coverslip for 24 h at 37°C followed by 12 h serum starvation in 6‐well plates. The cells were treated with Doxorubicin (0.01 and 0.1 μM) in the absence or presence of compounds—1c, 1e, 1g, 1h, 1j, and 1k and incubated for 48 h. Post‐treatment, the cells were fixed using 4% Paraformaldehyde and stained with Hoechst 33342 dye (2 mg/mL; Invitrogen, USA) for 30 min. Apoptotic cells were identified by visualizing the fragmentation and condensation of nuclei using a confocal microscope (Olympus, USA).[30]

[2] = tested on: CD24^−/CD44^+‐breast CSC population sorted from MDA‐MB‐231; experiment: MTT assay in sorted breast CSC population; conditions: doxorubicin 0.01 μM + 1e 5 μM vs doxorubicin 0.01 μM alone
Description: To evaluate the cytotoxicity profile of the potential EGFR inhibitors (compounds) against TNBC cell lines—MDA‐MB‐231, MDA‐MB‐468, and control cell line HEK293, cells were seeded at a cell density of 5 × 10^3 cells/well in complete medium onto 96‐well plates. Here, the non‐tumoral human embryonic kidney (HEK293) epithelial cells have been utilized as a control cell line to compare the IC50 values of the compounds between cancerous and non‐cancerous cell lines with a big therapeutic window. The use of HEK293 cells as compared to other non‐cancerous cell lines are easy to maintain in culture and the results obtained from HEK293 are highly reproducible and consistent.[27] Briefly, the cells were incubated at 37°C for 12 h to attain morphology. After 12 h, cells were serum starved by replacing the complete media with media containing 2% FBS to synchronize the cells. […] All the experiments were performed thrice and the IC50 values of the compounds and Doxorubicin were calculated using GraphPad Prism software version 9 (San Diego, CA, USA). Similarly, the percent inhibition of the sorted cell populations by chemotherapeutic drug, doxorubicin in the absence/presence of potent compound 1e or standard EGFR inhibitor, PD153035 was evaluated utilizing GraphPad Prism Version 9 (San Diego, CA, USA).

MDA‐MB‐468 = experiment: MTT cytotoxicity assay in MDA-MB-468
Description: TNBC cell lines (ER^−, PR^−, HER2^−)—MDA‐MB‐231 (ATCC HTB‐26) and MDA‐MB‐468 (ATCC HTB‐132) were procured from ATCC and cultured in Roswell Park Memorial Institute Media (RPMI‐1640) and Dulbecco's Modified Eagle's Medium (DMEM), respectively, supplemented with 10% FBS and 1% Penicillin–Streptomycin solution. Cells were maintained at 5% CO2 at 37°C in a humid atmosphere.[6], [26] The control cell line, Human Embryonic Kidney—HEK‐293 (ATCC CRL‐3216) was also obtained from ATCC and cultured in DMEM.[5], [25]
To evaluate the cytotoxicity profile of the potential EGFR inhibitors (compounds) against TNBC cell lines—MDA‐MB‐231, MDA‐MB‐468, and control cell line HEK293, cells were seeded at a cell density of 5 × 10^3 cells/well in complete medium onto 96‐well plates. Here, the non‐tumoral human embryonic kidney (HEK293) epithelial cells have been utilized as a control cell line to compare the IC50 values of the compounds between cancerous and non‐cancerous cell lines with a big therapeutic window. The use of HEK293 cells as compared to other non‐cancerous cell lines are easy to maintain in culture and the results obtained from HEK293 are highly reproducible and consistent.[27] Briefly, the cells were incubated at 37°C for 12 h to attain morphology. After 12 h, cells were serum starved by replacing the complete media with media containing 2% FBS to synchronize the cells. Post‐12 h of synchronization, cells were treated with an increasing concentration (0.1, 1, 10, 100 μM) of all the compounds (1a, 1b, 1c, 1d, 1e, 1f, 1g, 1h, 1i, 1j, 1k). Separately, TNBC cells were treated with increasing concentration (0.01, 0.1, 1 μM) of Doxorubicin (Sigma‐Aldrich, St Louis, MO, USA) in presence of the selected compounds (1c, 1e, 1g, 1h, 1j, and 1k) at 5 μM concentration or combination of selected compounds (1c, 1e, 1g, 1h, 1j, and 1k) at increasing concentration (1, 2.5, 5, 10 μM) in presence of Doxorubicin (0.01 μM) for 48 h. In addition, the CD24^+‐breast cancer cells and CD24^−/CD44^+‐breast CSC populations, being sorted by Magnetic Activated Cell Sorting (MACS) from MDA‐MB‐231 cells as described previously,[6] were also treated with increasing concentrations of Doxorubicin (0.01–1 μM), in the presence or absence of 1e (10–30 μM), or PD153035 (10 μM) (Sigma‐Aldrich, St Louis, MO, USA). MTT assay was performed to evaluate the cytotoxicity of these compounds against the TNBC cell lines, and the sorted populations as described previously.[6] All the experiments were performed thrice and the IC50 values of the compounds and Doxorubicin were calculated using GraphPad Prism software version 9 (San Diego, CA, USA). Similarly, the percent inhibition of the sorted cell populations by chemotherapeutic drug, doxorubicin in the absence/presence of potent compound 1e or standard EGFR inhibitor, PD153035 was evaluated utilizing GraphPad Prism Version 9 (San Diego, CA, USA).

Question: How did the “expression of pro‐apoptotic genes Bax and Cytochrome‐C” value [1] turn out when `c1cncc(C(c2c[nH]c3ccccc23)c2c[nH]c3ccccc23)c1` [1e] was run?
Answer: Its value is “marked increase”.

Question: And the “doxorubicin‐induced nuclear fragmentation (apoptosis)” value (MDA‐MB‐231 cells)?
Answer: Its value is “markedly increased”.

Question: What about the “increase of percent inhibition of cell proliferation versus doxorubicin alone” value [2] of the same compound?
Answer: Its value is 6.1 folds.

Question: And the “decrease in the IC50 of Doxorubicin in the presence of the compound” value (MDA‐MB‐468; MDA-MB-468, versus Doxorubicin alone)?
Answer: The value was 10 fold.

Question: What about the IC50 (MDA‐MB‐468; compound alone, MTT, 48 h, read-out: IC50 (μM) in MDA‐MB‐468 (mean ± SD)) of the same compound?
Answer: Its IC50 is 36 ± 5.91 µM.
